Experimental data reported in the supplement of paper PMC9663587.

Columns and labels:
[1] = compound: CO[C@@H](C)Cn1c(=O)n(C)c2cnc3ccc(-c4cncc(C(C)(C)O)c4)cc3c21
Flavopiridol [2] = compound: T1, CN1CC[C@H](c2c(O)cc(O)c3c(=O)cc(-c4ccccc4Cl)oc23)[C@H](O)C1 [Flavopiridol]
Taselisib/GDC0032 = compound: Cc1nc(-c2cn3c(n2)-c2ccc(-c4cnn(C(C)(C)C(N)=O)c4)cc2OCC3)n(C(C)C)n1 [Taselisib/GDC0032]
Saracatinib/AZD0530 = compound: CN1CCN(CCOc2cc(OC3CCOCC3)c3c(Nc4c(Cl)ccc5c4OCO5)ncnc3c2)CC1 [Saracatinib/AZD0530]
ABT-737 = compound: CN(C)CC[C@H](CSc1ccccc1)Nc1ccc(S(=O)(=O)NC(=O)c2ccc(N3CCN(Cc4ccccc4-c4ccc(Cl)cc4)CC3)cc2)cc1[N+](=O)[O-] [ABT-737]
YKL-5-124 = compound: C=CC(=O)Nc1ccc(C(=O)Nc2[nH]nc3c2CN(C(=O)N[C@H](CN(C)C)c2ccccc2)C3(C)C)cc1 [YKL-5-124]; assay: GR value, 72 h; higher = faster growth (1 = untreated, <0 = killing);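 also: breast cancer and non-malignant breast epithelial lines, nine half-log doses, viable cells counted by Hoechst and LIVE/DEAD dye imaging versus time-zero plates and DMSO controls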
Flavopiridol [3] = compound: T1, Flavopiridol; assay: as above
[4] = compound: CC(=O)c1c(C)c2cnc(Nc3ccc(N4CCNCC4)cn3)nc2n(C2CCCC2)c1=O; assay: as above
BSJ-03-123 = compound: CC(=O)c1c(C)c2cnc(Nc3ccc(N4CCN(CCOCCOCCOCCNC(=O)COc5cccc6c5C(=O)N(C5CCC(=O)NC5=O)C6=O)CC4)cn3)nc2n(C2CCCC2)c1=O [BSJ-03-123]; assay: as above
[5] = compound: CCc1cnn2c(NCc3ccc[n+]([O-])c3)cc(N3CCCC[C@H]3CCO)nc12; assay: as above
Neratinib/HKI272 = compound: CCOc1cc2ncc(C#N)c(Nc3ccc(OCc4ccccn4)c(Cl)c3)c2cc1NC(=O)/C=C/CN(C)C [Neratinib/HKI272]; assay: as above
[6] = compound: CCN1CCN(Cc2ccc(Nc3ncc(F)c(-c4cc(F)c5nc(C)n(C(C)C)c5c4)n3)nc2)CC1; assay: as above
THZ531 = compound: CN(C)C/C=C/C(=O)Nc1ccc(C(=O)N2CCC[C@@H](Nc3ncc(Cl)c(-c4c[nH]c5ccccc45)n3)C2)cc1 [THZ531]; assay: as above
LEE011/Ribociclib = compound: CN(C)C(=O)c1cc2cnc(Nc3ccc(N4CCNCC4)cn3)nc2n1C1CCCC1 [LEE011/Ribociclib]; assay: as above
THZ1 = compound: CN(C)C/C=C/C(=O)Nc1ccc(C(=O)Nc2cccc(Nc3ncc(Cl)c(-c4c[nH]c5ccccc45)n3)c2)cc1 [THZ1]; assay: as above
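For GR50, 72 h in this document: breast cancer and non-malignant breast epithelial cell lines, Deep Dye Drop or Dye Drop imaging, nine half-log doses, GR normalized to time-zero plates and DMSO-only controls.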

CAL851
GR50, 72 h [1]: < 0.001 µM | GR50, 72 h (Flavopiridol [2]): 0.17 µM | GR50, 72 h (Taselisib/GDC0032): 0.0604 µM | GR50, 72 h (Saracatinib/AZD0530): 0.871 µM | GR50, 72 h (ABT-737): > 10 µM | GR value (YKL-5-124; 0.001 µM): 0.137 GR | GR value (YKL-5-124; 0.003162 µM): -0.128 GR | GR value (YKL-5-124; 0.01 µM): -0.137 GR | GR value (YKL-5-124; 0.03162 µM): -0.128 GR | GR value (YKL-5-124; 0.1 µM): -0.177 GR | GR value (YKL-5-124; 0.3162 µM): -0.275 GR | GR value (YKL-5-124; 1 µM): -0.172 GR | GR value (YKL-5-124; 3.162 µM): -0.25 GR | GR value (YKL-5-124; 10 µM): -0.561 GR | GR value (Flavopiridol [3]; 0.0001 µM): 1.04 GR | GR value (Flavopiridol [3]; 0.0003162 µM): 1.01 GR | GR value (Flavopiridol [3]; 0.001 µM): 0.961 GR | GR value (Flavopiridol [3]; 0.003162 µM): 0.874 GR | GR value (Flavopiridol [3]; 0.01 µM): 0.718 GR | GR value (Flavopiridol [3]; 0.03162 µM): 0.906 GR | GR value (Flavopiridol [3]; 0.1 µM): 0.823 GR | GR value (Flavopiridol [3]; 0.3162 µM): -0.005 GR | GR value (Flavopiridol [3]; 1 µM): -0.159 GR | GR value ([4]; 0.0003162 µM): 1.05 GR | GR value ([4]; 0.001 µM): 1.07 GR | GR value ([4]; 0.003162 µM): 1.13 GR | GR value ([4]; 0.01 µM): 1.09 GR | GR value ([4]; 0.03162 µM): 1.17 GR | GR value ([4]; 0.1 µM): 1.06 GR | GR value ([4]; 0.3162 µM): 0.993 GR | GR value ([4]; 1 µM): 1.07 GR | GR value ([4]; 3.162 µM): 1.07 GR | GR value (BSJ-03-123; 0.001 µM): 1.15 GR | GR value (BSJ-03-123; 0.003162 µM): 0.948 GR | GR value (BSJ-03-123; 0.01 µM): 0.849 GR | GR value (BSJ-03-123; 0.03162 µM): 0.839 GR | GR value (BSJ-03-123; 0.1 µM): 0.601 GR | GR value (BSJ-03-123; 0.3162 µM): 0.599 GR | GR value (BSJ-03-123; 1 µM): 0.447 GR | GR value (BSJ-03-123; 3.162 µM): 0.209 GR | GR value (BSJ-03-123; 10 µM): -0.238 GR | GR value ([5]; 0.0001 µM): 0.97 GR | GR value ([5]; 0.0003162 µM): 1.08 GR | GR value ([5]; 0.001 µM): 0.982 GR | GR value ([5]; 0.003162 µM): 0.681 GR | GR value ([5]; 0.01 µM): 0.0301 GR | GR value ([5]; 0.03162 µM): -0.178 GR | GR value ([5]; 0.1 µM): -0.234 GR | GR value ([5]; 0.3162 µM): -0.213 GR | GR value ([5]; 1 µM): -0.239 GR | GR value (Neratinib/HKI272; 0.0003162 µM): 1.04 GR | GR value (Neratinib/HKI272; 0.001 µM): 0.993 GR | GR value (Neratinib/HKI272; 0.003162 µM): 0.881 GR | GR value (Neratinib/HKI272; 0.01 µM): 0.747 GR | GR value (Neratinib/HKI272; 0.03162 µM): 0.435 GR | GR value (Neratinib/HKI272; 0.1 µM): 0.226 GR | GR value (Neratinib/HKI272; 0.3162 µM): 0.109 GR | GR value (Neratinib/HKI272; 1 µM): -0.0501 GR | GR value (Neratinib/HKI272; 3.162 µM): -0.322 GR | GR value ([6]; 0.001 µM): 1.09 GR | GR value ([6]; 0.003162 µM): 0.968 GR | GR value ([6]; 0.01 µM): 1.08 GR | GR value ([6]; 0.03162 µM): 1.05 GR | GR value ([6]; 0.1 µM): 1.12 GR | GR value ([6]; 0.3162 µM): 0.914 GR | GR value ([6]; 1 µM): 0.617 GR | GR value ([6]; 3.162 µM): -0.0347 GR | GR value ([6]; 10 µM): -0.233 GR | GR value (THZ531; 0.0001 µM): 1.12 GR | GR value (THZ531; 0.0003162 µM): 0.975 GR | GR value (THZ531; 0.001 µM): 0.997 GR | GR value (THZ531; 0.003162 µM): 0.889 GR | GR value (THZ531; 0.01 µM): 0.924 GR | GR value (THZ531; 0.03162 µM): 0.717 GR | GR value (THZ531; 0.1 µM): 0.322 GR | GR value (THZ531; 0.3162 µM): 0.0707 GR | GR value (THZ531; 1 µM): -0.218 GR | GR value (LEE011/Ribociclib; 0.001 µM): 1.09 GR | GR value (LEE011/Ribociclib; 0.003162 µM): 0.939 GR | GR value (LEE011/Ribociclib; 0.01 µM): 0.859 GR | GR value (LEE011/Ribociclib; 0.03162 µM): 1.1 GR | GR value (LEE011/Ribociclib; 0.1 µM): 0.931 GR | GR value (LEE011/Ribociclib; 0.3162 µM): 0.775 GR | GR value (LEE011/Ribociclib; 1 µM): 0.874 GR | GR value (LEE011/Ribociclib; 3.162 µM): 1.04 GR | GR value (LEE011/Ribociclib; 10 µM): 1.11 GR | GR value (THZ1; 0.0001 µM): 1.01 GR | GR value (THZ1; 0.0003162 µM): 0.917 GR | GR value (THZ1; 0.001 µM): 0.835 GR | GR value (THZ1; 0.003162 µM): 0.727 GR | GR value (THZ1; 0.01 µM): 0.6 GR | GR value (THZ1; 0.03162 µM): 0.145 GR | GR value (THZ1; 0.1 µM): -0.146 GR | GR value (THZ1; 0.3162 µM): -0.225 GR | GR value (THZ1; 1 µM): -0.549 GR
